Measurements: US8871753B2, “Macrocyclic compounds and their use as kinase inhibitors” (Incyte Corporation, priority 2008, dated 2014)

Columns and labels:
Format in all cases: biochemical
[1] = target: T1, human JAK1 (a.a. 837-1142) (Homo sapiens, UniProt P23458); assay: In vitro JAK kinase assay (HTRF, phosphorylation of a biotinylated peptide), JAK1; details: method AA1 (90 μM ATP) or AA2 (1000 μM ATP), not stated per value; read-out: JAK1 IC50
T1 construct: human JAK1 (a.a. 837-1142); His tag (N); made in house; host or cells: insect cells (baculovirus)
T1 sequence (P23458 849-1154): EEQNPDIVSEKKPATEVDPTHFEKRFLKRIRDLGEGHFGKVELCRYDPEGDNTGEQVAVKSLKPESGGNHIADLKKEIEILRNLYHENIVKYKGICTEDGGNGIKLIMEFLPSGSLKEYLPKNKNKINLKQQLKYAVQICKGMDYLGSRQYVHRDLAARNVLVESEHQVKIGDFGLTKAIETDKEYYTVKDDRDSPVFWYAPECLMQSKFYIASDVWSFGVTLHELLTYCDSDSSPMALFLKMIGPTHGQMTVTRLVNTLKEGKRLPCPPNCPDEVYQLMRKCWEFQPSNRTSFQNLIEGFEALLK
Procedure, shortened: (§1)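 Phosphorylation of a biotinylated peptide by the JAK kinase domain, detected by HTRF with Eu-Py20 and SA-APC. ATP was 90 μM for JAK1, 30 μM for JAK2 and 3 μM for JAK3. Reactions ran 1 h at room temperature and were stopped with EDTA, followed by 40 min antibody binding.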

[2] = target: T2, human JAK2 (a.a. 828-1132) (Homo sapiens, UniProt O60674); assay: In vitro JAK kinase assay (HTRF, phosphorylation of a biotinylated peptide), JAK2; details: method AA1 (30 μM ATP) or AA2 (1000 μM ATP), not stated per value
T2 construct: JAK2 (a.a. 828-1132); His tag (N); made in house; host or cells: insect cells (baculovirus)
T2 sequence (O60674 828-1132): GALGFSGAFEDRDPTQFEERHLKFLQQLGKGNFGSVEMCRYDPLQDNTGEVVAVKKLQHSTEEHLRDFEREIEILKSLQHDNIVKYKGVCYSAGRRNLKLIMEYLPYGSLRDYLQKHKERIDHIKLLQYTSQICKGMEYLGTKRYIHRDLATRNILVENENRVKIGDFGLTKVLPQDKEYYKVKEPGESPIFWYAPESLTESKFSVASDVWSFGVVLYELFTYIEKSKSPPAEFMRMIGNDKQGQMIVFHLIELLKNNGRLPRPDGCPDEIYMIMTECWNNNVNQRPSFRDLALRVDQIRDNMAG
Procedure, shortened: as §1

[3] = target: T3, human JAK3 (a.a. 781-1124) (Homo sapiens, UniProt P52333); assay: In vitro JAK kinase assay (HTRF, phosphorylation of a biotinylated peptide), JAK3; details: method AA1 (3 μM ATP) or AA2 (1000 μM ATP), not stated per value
T3 construct: JAK3 (a.a. 781-1124); His tag (N); made in house; host or cells: insect cells (baculovirus)
T3 sequence (P52333 781-1124): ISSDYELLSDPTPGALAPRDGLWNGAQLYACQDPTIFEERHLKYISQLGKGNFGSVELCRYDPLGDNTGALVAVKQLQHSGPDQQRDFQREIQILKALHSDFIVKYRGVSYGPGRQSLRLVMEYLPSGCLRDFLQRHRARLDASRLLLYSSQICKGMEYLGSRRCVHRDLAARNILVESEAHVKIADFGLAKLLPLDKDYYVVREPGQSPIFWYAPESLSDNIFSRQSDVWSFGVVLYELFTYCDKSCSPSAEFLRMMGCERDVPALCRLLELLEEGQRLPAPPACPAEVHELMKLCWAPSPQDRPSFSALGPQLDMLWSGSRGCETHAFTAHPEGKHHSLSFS
Procedure, shortened: as §1

TYK2 = TYK2 (Homo sapiens, UniProt P29597); assay: TYK2 kinase inhibition (Table A1)
Sequence of TYK2 (P29597 whole entry): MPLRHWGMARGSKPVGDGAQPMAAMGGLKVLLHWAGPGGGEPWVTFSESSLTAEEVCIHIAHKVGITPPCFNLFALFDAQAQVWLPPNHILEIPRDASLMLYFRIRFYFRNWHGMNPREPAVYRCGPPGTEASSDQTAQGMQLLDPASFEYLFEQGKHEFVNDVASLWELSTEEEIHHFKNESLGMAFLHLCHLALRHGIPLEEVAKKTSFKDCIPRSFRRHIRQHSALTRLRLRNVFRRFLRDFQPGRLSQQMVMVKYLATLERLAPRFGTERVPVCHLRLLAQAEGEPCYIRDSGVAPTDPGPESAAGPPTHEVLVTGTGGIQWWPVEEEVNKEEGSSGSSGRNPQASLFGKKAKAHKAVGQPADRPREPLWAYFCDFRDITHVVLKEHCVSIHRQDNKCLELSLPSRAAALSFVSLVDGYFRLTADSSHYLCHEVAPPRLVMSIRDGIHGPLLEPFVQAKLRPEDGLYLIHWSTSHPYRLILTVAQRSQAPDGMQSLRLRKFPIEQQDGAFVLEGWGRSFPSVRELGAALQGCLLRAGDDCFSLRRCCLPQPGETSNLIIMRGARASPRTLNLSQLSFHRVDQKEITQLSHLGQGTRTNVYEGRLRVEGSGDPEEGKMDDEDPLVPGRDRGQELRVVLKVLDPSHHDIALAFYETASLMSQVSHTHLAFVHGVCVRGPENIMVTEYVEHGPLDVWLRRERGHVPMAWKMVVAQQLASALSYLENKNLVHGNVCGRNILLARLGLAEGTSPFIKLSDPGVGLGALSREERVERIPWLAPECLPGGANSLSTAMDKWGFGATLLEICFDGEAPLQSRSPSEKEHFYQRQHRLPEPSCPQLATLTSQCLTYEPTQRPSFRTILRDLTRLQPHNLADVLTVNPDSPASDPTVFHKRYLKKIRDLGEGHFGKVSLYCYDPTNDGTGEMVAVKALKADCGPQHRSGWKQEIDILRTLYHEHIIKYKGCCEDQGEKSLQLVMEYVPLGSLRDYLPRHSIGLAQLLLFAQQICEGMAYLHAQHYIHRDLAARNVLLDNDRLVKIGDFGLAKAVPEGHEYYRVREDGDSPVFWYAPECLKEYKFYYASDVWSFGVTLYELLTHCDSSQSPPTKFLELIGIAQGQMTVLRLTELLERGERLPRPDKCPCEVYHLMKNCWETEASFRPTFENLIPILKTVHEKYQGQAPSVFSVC

[4] = target: T4, Recombinant Human Anaplastic Lymphoma Kinase (Homo sapiens, UniProt Q9UM73); assay: ALK HTRF kinase assay; details: compound at 500 nM or 1 mM; 90 μM ATP
T4 construct: purchased Invitrogen, Carlsbad, Calif
T4 sequence (Q9UM73 19-1620): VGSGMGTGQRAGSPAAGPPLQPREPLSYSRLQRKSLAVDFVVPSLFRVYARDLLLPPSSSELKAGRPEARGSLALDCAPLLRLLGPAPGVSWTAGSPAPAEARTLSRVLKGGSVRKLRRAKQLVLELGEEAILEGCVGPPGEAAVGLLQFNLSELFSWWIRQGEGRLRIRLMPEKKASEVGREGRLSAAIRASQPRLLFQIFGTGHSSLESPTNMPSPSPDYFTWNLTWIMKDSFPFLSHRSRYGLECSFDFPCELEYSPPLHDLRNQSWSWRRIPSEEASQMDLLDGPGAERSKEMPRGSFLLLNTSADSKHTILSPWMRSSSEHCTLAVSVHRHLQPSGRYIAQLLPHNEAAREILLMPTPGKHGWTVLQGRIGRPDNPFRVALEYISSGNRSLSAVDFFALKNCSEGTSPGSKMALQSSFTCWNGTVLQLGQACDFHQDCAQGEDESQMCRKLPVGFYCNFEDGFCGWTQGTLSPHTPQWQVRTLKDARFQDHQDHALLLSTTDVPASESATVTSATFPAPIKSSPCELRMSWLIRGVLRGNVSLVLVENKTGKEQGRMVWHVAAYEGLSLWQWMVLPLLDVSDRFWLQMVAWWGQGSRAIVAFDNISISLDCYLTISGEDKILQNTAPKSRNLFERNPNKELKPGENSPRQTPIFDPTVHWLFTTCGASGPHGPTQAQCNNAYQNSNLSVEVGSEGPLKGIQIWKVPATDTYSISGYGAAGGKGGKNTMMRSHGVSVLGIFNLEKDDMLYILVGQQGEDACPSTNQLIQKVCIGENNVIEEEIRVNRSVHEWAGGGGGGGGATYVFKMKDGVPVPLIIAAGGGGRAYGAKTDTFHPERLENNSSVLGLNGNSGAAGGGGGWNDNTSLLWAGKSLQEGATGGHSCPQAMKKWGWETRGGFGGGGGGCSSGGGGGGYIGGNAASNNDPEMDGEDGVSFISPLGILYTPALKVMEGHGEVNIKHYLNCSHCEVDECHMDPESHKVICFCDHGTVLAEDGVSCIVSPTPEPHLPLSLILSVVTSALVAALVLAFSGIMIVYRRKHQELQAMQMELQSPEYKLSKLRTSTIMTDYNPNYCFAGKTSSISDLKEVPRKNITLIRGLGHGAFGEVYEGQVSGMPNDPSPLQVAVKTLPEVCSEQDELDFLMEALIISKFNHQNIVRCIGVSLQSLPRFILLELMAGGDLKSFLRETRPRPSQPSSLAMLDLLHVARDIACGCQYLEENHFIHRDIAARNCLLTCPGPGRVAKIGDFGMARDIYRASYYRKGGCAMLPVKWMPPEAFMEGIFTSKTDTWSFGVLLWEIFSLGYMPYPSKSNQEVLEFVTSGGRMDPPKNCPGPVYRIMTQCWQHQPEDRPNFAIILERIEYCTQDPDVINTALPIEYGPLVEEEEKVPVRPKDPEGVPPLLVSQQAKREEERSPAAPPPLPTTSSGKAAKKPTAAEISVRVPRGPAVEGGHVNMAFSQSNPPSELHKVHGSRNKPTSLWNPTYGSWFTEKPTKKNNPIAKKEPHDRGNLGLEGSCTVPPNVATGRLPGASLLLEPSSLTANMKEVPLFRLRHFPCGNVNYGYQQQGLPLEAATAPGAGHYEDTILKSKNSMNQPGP
Procedure, shortened: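 Readout was HTRF between a Eu-W1024 anti-phosphotyrosine antibody and streptavidin-APC bound to biotinylated peptide phosphorylated by recombinant human ALK. IC50 values came from a four-parameter logistic fit.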

Compound | IC50 [1] [nM] | IC50 [2] [nM] | IC50 [3] [nM] | IC50 (TYK2) [nM] | ALK % of inhibition at a concentration of 500 nM or 1 mM [4] [%]
O=C(CC1CCN(S(=O)(=O)c2ccccc2Cl)CC1)Nc1ccc2cc1CCc1cncc(c1)Nc1ncc(Cl)c(n1)N2 [Example A223, N-[6-Chloro-2,4,8,18,22-pentaazatetracyclo[14.3.1.1(3,7).1(9,13)]docosa-1(20),3(22),4,6,9(21),10,12,16,18-nonaen-12-yl]-2-{1-[(2-chlorophenyl)sulfonyl]piperidin-4-yl}acetamide bis(trifluoroacetate)] | 5 | 90 | > 400 | > 400 | 41
O=C(CC1CCN(S(=O)(=O)c2ccccc2C(F)(F)F)CC1)Nc1ccc2cc1CCc1cncc(c1)Nc1ncc(Cl)c(n1)N2 [Example A224, N-[6-Chloro-2,4,8,18,22-pentaazatetracyclo[14.3.1.1(3,7).1(9,13)]docosa-1(20),3(22),4,6,9(21),10,12,16,18-nonaen-12-yl]-2-(1-{[2-(trifluoromethyl)phenyl]sulfonyl}piperidin-4-yl)acetamide bis(trifluoroacetate)] | 14 | > 400 | > 400 | > 400 | 30
O=C(CC1CCN(S(=O)(=O)c2ccccc2F)CC1)Nc1ccc2cc1CCc1cncc(c1)Nc1ncc(Cl)c(n1)N2 [Example A226, N-[6-Chloro-2,4,8,18,22-pentaazatetracyclo[14.3.1.1(3,7).1(9,13)]docosa-1(20),3(22),4,6,9(21),10,12,16,18-nonaen-12-yl]-2-{1-[(2-fluorophenyl)sulfonyl]piperidin-4-yl}acetamide bis(trifluoroacetate)] | 5.3 | 100 | > 400 | > 400 | 55
O=C(CC1CCN(S(=O)(=O)c2ccccc2OC(F)(F)F)CC1)Nc1ccc2cc1CCc1cncc(c1)Nc1ncc(Cl)c(n1)N2 [Example A227, N-[6-Chloro-2,4,8,18,22-pentaazatetracyclo[14.3.1.1(3,7).1(9,13)]docosa-1(20),3(22),4,6,9(21),10,12,16,18-nonaen-12-yl]-2-(1-{[2-(trifluoromethoxy)phenyl]sulfonyl}piperidin-4-yl)acetamide bis(trifluoroacetate)] | 10 | > 400 | > 400 | > 400 | 22
N#Cc1cccc(S(=O)(=O)N2CCC(CC(=O)Nc3ccc4cc3CCc3cncc(c3)Nc3ncc(Cl)c(n3)N4)CC2)c1 [Example A228, N-[6-Chloro-2,4,8,18,22-pentaazatetracyclo[14.3.1.1(3,7).1(9,13)]docosa-1(20),3(22),4,6,9(21),10,12,16,18-nonaen-12-yl]-2-{1-[(3-cyanophenyl)sulfonyl]piperidin-4-yl}acetamide bis(trifluoroacetate)] | 6.9 | 114 | > 400 | 109 | 62
COc1cccc(N2CCC(CC(=O)Nc3ccc4cc3CCc3cncc(c3)Nc3ncc(Cl)c(n3)N4)CC2)c1C#N [Example A233, N-[6-Chloro-2,4,8,18,22-pentaazatetracyclo[14.3.1.1(3,7).1(9,13)]docosa-1(20),3(22),4,6,9(21),10,12,16,18-nonaen-12-yl]-2-[1-(2-cyano-3-methoxyphenyl)piperidin-4-yl]acetamide tris(trifluoroacetate)] | 0.4 | 19 | > 400 | 26 | 24
N#Cc1c(F)cccc1N1CCC(CC(=O)Nc2ccc3cc2CCc2cncc(c2)Nc2ncc(Cl)c(n2)N3)CC1 [Example A234, N-[6-Chloro-2,4,8,18,22-pentaazatetracyclo[14.3.1.1(3,7).1(9,13)]docosa-1(20),3(22),4,6,9(21),10,12,16,18-nonaen-12-yl]-2-[1-(2-cyano-3-fluorophenyl)piperidin-4-yl]acetamide tris(trifluoroacetate)] | 1.5 | 80 | > 400 | 72 | 13
N#Cc1c(N2CCC(CC(=O)Nc3ccc4cc3CCc3cncc(c3)Nc3ncc(Cl)c(n3)N4)CC2)cccc1C(F)(F)F [Example A235, N-[6-Chloro-2,4,8,18,22-pentaazatetracyclo[14.3.1.1(3,7).1(9,13)]docosa-1(20),3(22),4,6,9(21),10,12,16,18-nonaen-12-yl]-2-{1-[2-cyano-3-(trifluoromethyl)phenyl]piperidin-4-yl}acetamide tris(trifluoroacetate)] | 12 | 326 | > 400 | > 400 | 4.6
Cc1cccc(N2CCC(CC(=O)Nc3ccc4cc3CCc3cncc(c3)Nc3ncc(Cl)c(n3)N4)CC2)c1C#N [Example A236, N-[6-Chloro-2,4,8,18,22-pentaazatetracyclo[14.3.1.1(3,7).1(9,13)]docosa-1(20),3(22),4,6,9(21),10,12,16,18-nonaen-12-yl]-2-[1-(2-cyano-3-methylphenyl)piperidin-4-yl]acetamide tris(trifluoroacetate)] | 1.7 | 150 | > 400 | > 400 | 16
N#Cc1ccc(C(F)(F)F)cc1N1CCC(CC(=O)Nc2ccc3cc2CCc2cncc(c2)Nc2ncc(Cl)c(n2)N3)CC1 [Example A237, N-[6-Chloro-2,4,8,18,22-pentaazatetracyclo[14.3.1.1(3,7).1(9,13)]docosa-1(20),3(22),4,6,9(21),10,12,16,18-nonaen-12-yl]-2-{1-[2-cyano-5-(trifluoromethyl)phenyl]piperidin-4-yl}acetamide tris(trifluoroacetate)] | 90 | > 400 | > 400 | > 400 | 5.9

The remaining lines, values ahead:

IC50 [1] [nM] | IC50 [2] [nM] | IC50 [3] [nM] | IC50 (TYK2) [nM] | ALK % of inhibition at a concentration of 500 nM or 1 mM [4] [%] | Compound
7.2 | 180 | > 400 | > 400 | 36 | Cc1ccccc1S(=O)(=O)N1CCC(CC(=O)Nc2ccc3cc2CCc2cncc(c2)Nc2ncc(Cl)c(n2)N3)CC1 [Example A225, N-[6-Chloro-2,4,8,18,22-pentaazatetracyclo[14.3.1.1(3,7).1(9,13)]docosa-1(20),3(22),4,6,9(21),10,12,16,18-nonaen-12-yl]-2-{1-[(2-methylphenyl)sulfonyl]piperidin-4-yl}acetamide bis(trifluoroacetate)]
8 | 75 | > 400 | 120 | 55 | Cn1cnc(S(=O)(=O)N2CCC(CC(=O)Nc3ccc4cc3CCc3cncc(c3)Nc3ncc(Cl)c(n3)N4)CC2)c1 [Example A229, N-[6-Chloro-2,4,8,18,22-pentaazatetracyclo[14.3.1.1(3,7).1(9,13)]docosa-1(20),3(22),4,6,9(21),10,12,16,18-nonaen-12-yl]-2-{1-[(1-methyl-1H-imidazol-4-yl)sulfonyl]piperidin-4-yl}acetamide bis(trifluoroacetate)]
15 | 130 | > 400 | 255 | 50 | Cc1nc(S(=O)(=O)N2CCC(CC(=O)Nc3ccc4cc3CCc3cncc(c3)Nc3ncc(Cl)c(n3)N4)CC2)cn1C [Example A230, N-[6-Chloro-2,4,8,18,22-pentaazatetracyclo[14.3.1.1(3,7).1(9,13)]docosa-1(20),3(22),4,6,9(21),10,12,16,18-nonaen-12-yl]-2-{1-[(1,2-dimethyl-1H-imidazol-4-yl)sulfonyl]piperidin-4-yl}acetamide bis(trifluoroacetate)]
9.7 | 85 | > 400 | 98 | 46 | Cc1noc(C)c1S(=O)(=O)N1CCC(CC(=O)Nc2ccc3cc2CCc2cncc(c2)Nc2ncc(Cl)c(n2)N3)CC1 [Example A231, N-[6-chloro-2,4,8,18,22-pentaazatetracyclo[14.3.1.1(3,7).1(9,13)]docosa-1(20),3(22),4,6,9(21),10,12,16,18-nonaen-12-yl]-2-{1-[(3,5-dimethylisoxazol-4-yl)sulfonyl]piperidin-4-yl}acetamide bis(trifluoroacetate)]
12 | 94 | > 400 | 326 | 43 | Cc1nc(C)c(S(=O)(=O)N2CCC(CC(=O)Nc3ccc4cc3CCc3cncc(c3)Nc3ncc(Cl)c(n3)N4)CC2)s1 [Example A232, N-[6-Chloro-2,4,8,18,22-pentaazatetracyclo[14.3.1.1(3,7).1(9,13)]docosa-1(20),3(22),4,6,9(21),10,12,16,18-nonaen-12-yl]-2-{1-[(2,4-dimethyl-1,3-thiazol-5-yl)sulfonyl]piperidin-4-yl}acetamide bis(trifluoroacetate)]
